Results as given in ChEMBL document CHEMBL4270515, “New pyrazolopyridine analogs: Synthesis, antimicrobial, antiquorum-sensing and antitumor screening” (Eur J Med Chem, 2018).
Values after ≈ are worked out from the molar mass of the structure shown.

How the values were obtained:
Staphylococcus aureus = experiment: Antimicrobial activity against Staphylococcus aureus ATCC 29213 after 24 hrs by two-fold serial dilution method; type: functional; conditions: ATCC 29213, 24 h
Bacillus cereus = experiment: Antimicrobial activity against Bacillus cereus UW 85 after 24 hrs by two-fold serial dilution method; type: functional; conditions: UW 85, 24 h
Escherichia coli = experiment: Antimicrobial activity against Escherichia coli ATCC 12435 after 24 hrs by two-fold serial dilution method; type: functional; conditions: ATCC 12435, 24 h
Pseudomonas aeruginosa = experiment: Antimicrobial activity against Pseudomonas aeruginosa PAO1 after 24 hrs by two-fold serial dilution method; type: functional; conditions: PAO1, 24 h
Candida albicans = experiment: Antimicrobial activity against Candida albicans after 48 hrs by two-fold serial dilution method; type: functional
Aspergillus fumigatus = experiment: Antimicrobial activity against Aspergillus fumigatus 293 after 48 hrs by two-fold serial dilution method; type: functional; conditions: Af293, 48 h
Aspergillus flavus = experiment: Antimicrobial activity against Aspergillus flavus 3375 after 48 hrs by two-fold serial dilution method; type: functional; conditions: Aspergillus flavus, 3375, 48 h
[1] = tested on: Chromobacterium violaceum; experiment: Inhibition of N-acyl-homoserinlactone-related quorum sensing system in Chromobacterium violaceum ATCC 12472 assessed as diameter of violacein pigment inhibition after 48 hrs
HepG2 = experiment: Cytotoxicity against human HepG2 cells assessed as decrease in cell viability after 48 hrs by MTT assay; type: functional, cell-based; conditions: HepG2, 48 h
MCF7 = experiment: Cytotoxicity against human MCF7 cells assessed as decrease in cell viability after 48 hrs by MTT assay; type: functional, cell-based; conditions: MCF7, 48 h
HeLa = experiment: Cytotoxicity against human HeLa cells assessed as decrease in cell viability after 48 hrs by MTT assay; type: functional, cell-based
[2] = Displacement of methyl green from DNA (unknown origin) incubated in dark for 24 hrs
Ehrlich [3] = experiment: Antitumor activity against mouse EAC cells implanted in Swiss albino mouse assessed as mean survival time at 0.5 mg/mouse administered for 9 days (reference value: 14.5 day); type: functional
Ehrlich [4] = experiment: Antitumor activity against mouse EAC cells implanted in Swiss albino mouse assessed as increase in life span at 0.5 mg/mouse administered for 9 days relative to control; type: functional
Ehrlich [5] = experiment: Antitumor activity against mouse EAC cells implanted in Swiss albino mouse assessed as effect on tumor volume at 0.5 mg/mouse administered for 9 days (reference value: 9.85 mL); type: functional
Ehrlich [6] = experiment: Antitumor activity against mouse EAC cells implanted in Swiss albino mouse assessed as effect on viable tumor cell count at 0.5 mg/mouse administered for 9 days by trypan blue staining based method (reference value: 83.20 10^6/ml); type: functional
Mus musculus [7] = experiment: Toxicity in Swiss albino mouse implanted with mouse EAC cells assessed as effect on hemoglobin content at 0.5 mg/mouse administered for 9 days (reference value: 8.15 g/dl); type: organism-based; conditions: in vivo, 216 h
Mus musculus [8] = experiment: Toxicity in Swiss albino mouse implanted with mouse EAC cells assessed as effect on RBC count at 0.5 mg/mouse administered for 9 days (reference value: 3.69 10^6/mm3); type: organism-based; conditions: in vivo, 216 h
Mus musculus [9] = experiment: Toxicity in Swiss albino mouse implanted with mouse EAC cells assessed as effect on WBC count at 0.5 mg/mouse administered for 9 days (reference value: 23.96 10^3/mm3); type: organism-based; conditions: in vivo, 216 h
WI-38 = experiment: Cytotoxicity against human W138 cells assessed as decrease in cell viability after 48 hrs by MTT assay; type: cell-based; conditions: WI-38, 48 h
WISH = experiment: Cytotoxicity against human WISH cells assessed as decrease in cell viability after 48 hrs by MTT assay; type: cell-based

| SMILES | MIC (Staphylococcus aureus) | MIC (Bacillus cereus) | MIC (Escherichia coli) | MIC (Pseudomonas aeruginosa) | MIC (Candida albicans) | MIC (Aspergillus fumigatus) | MIC (Aspergillus flavus) | inhibition zone (IZ) [1] | IC50 (HepG2) | IC50 (MCF7) | IC50 (HeLa) | IC50 [2] | MST (Ehrlich [3]) | ILS (Ehrlich [4]) | Activity (Ehrlich [5]) | Activity (Ehrlich [6]) | Activity (Mus musculus [7]) | Activity (Mus musculus [8]) | Activity (Mus musculus [9]) | IC50 (WISH) | other results |
| --- | --- | --- | --- | --- | --- | --- | --- | --- | --- | --- | --- | --- | --- | --- | --- | --- | --- | --- | --- | --- | --- |
| Cc1n[nH]c2c1C(c1ccc(N(C)C)cc1)C(C(=O)O)=C(N)N2 (stereo not given) | 99.7 µM (≈ 31.3 µg/mL) | 99.7 µM (≈ 31.3 µg/mL) | 199 µM (≈ 62.5 µg/mL) | 199 µM (≈ 62.5 µg/mL) | 798 µM (≈ 250 µg/mL) | 399 µM (≈ 125 µg/mL) | 399 µM (≈ 125 µg/mL) | 11 mm | 39.7 µM | 22 µM | 33.6 µM | 41.7 µM |  |  |  |  |  |  |  |  |  |
| OC(Cn1cncn1)(Cn1cncn1)c1ccc(F)cc1F [FLUCONAZOLE] |  |  |  |  | 6530 µM (≈ 2000 µg/mL) |  |  |  |  |  |  |  |  |  |  |  |  |  |  |  |  |
| Cc1n[nH]c2c1C(c1ccc(N(C)C)cc1)C(C(N)=O)=C(N)N2 (stereo not given) |  |  |  | 3200 µM (≈ 1000 µg/mL) | 6400 µM (≈ 2000 µg/mL) | 3200 µM (≈ 1000 µg/mL) | 6400 µM (≈ 2000 µg/mL) | < 2 mm | 5.28 µM | 4.55 µM | 5.77 µM | 28 µM | 61 days | 238.9% | 1.35 mL | 21.46 ×10⁶ /ml | 14 g/dL | 5.94 ×10⁶ /mm3 | 8.2 ×10³ /mm3 | 76.4 µM | IC50 (WI-38): 68.5 µM |
| CC1(C)S[C@@H]2[C@H](NC(=O)[C@H](N)c3ccccc3)C(=O)N2[C@H]1C(=O)O [AMPICILLIN] | 716 µM (≈ 250 µg/mL) | 1430 µM (≈ 500 µg/mL) | 44.7 µM (≈ 15.6 µg/mL) |  |  |  |  |  |  |  |  |  |  |  |  |  |  |  |  |  |  |
| Cc1n[nH]c2c1C(c1ccc(N(C)C)cc1)C=C(N)N2 (stereo not given) | 3710 µM (≈ 1000 µg/mL) | 3710 µM (≈ 1000 µg/mL) | 7430 µM (≈ 2000 µg/mL) | 3710 µM (≈ 1000 µg/mL) | 3710 µM (≈ 1000 µg/mL) | 3710 µM (≈ 1000 µg/mL) | 3710 µM (≈ 1000 µg/mL) | < 2 mm | 20.6 µM | 11.2 µM | 27.4 µM | 56.4 µM | 31 days | 72.2% | 4.8 mL | 51.17 ×10⁶ /ml | 10.95 g/dL | 4.53 ×10⁶ /mm3 | 12.69 ×10³ /mm3 | 21.6 µM | IC50 (WI-38): 18.1 µM |
| Cc1n[nH]c2c1C(c1ccc(N(C)C)cc1)C(C(=O)N/N=C/c1ccc(Cl)cc1)=C(N)N2 (stereo not given) | 556 µM (≈ 250 µg/mL) | 556 µM (≈ 250 µg/mL) | 556 µM (≈ 250 µg/mL) | 556 µM (≈ 250 µg/mL) | 1110 µM (≈ 500 µg/mL) | 2220 µM (≈ 1000 µg/mL) | 2220 µM (≈ 1000 µg/mL) | < 2 mm | 39.5 µM | 25.2 µM | 31.7 µM | 67.8 µM |  |  |  |  |  |  |  |  |  |
| Cc1n[nH]c2c1C(c1ccc(N(C)C)cc1)C(C(=O)N/N=C1/C(=O)Nc3ccccc31)=C(N)N2 (stereo not given) | 2190 µM (≈ 1000 µg/mL) | 2190 µM (≈ 1000 µg/mL) | 4380 µM (≈ 2000 µg/mL) | 548 µM (≈ 250 µg/mL) | 2190 µM (≈ 1000 µg/mL) | 2190 µM (≈ 1000 µg/mL) | 2190 µM (≈ 1000 µg/mL) | < 2 mm | 57.9 µM | 59.1 µM | 52.9 µM |  |  |  |  |  |  |  |  |  |  |
| Cc1n[nH]c2c1C(c1ccc(N(C)C)cc1)C(C(=O)n1ncc(C#N)c1N)=C(N)N2 (stereo not given) |  |  |  | 620 µM (≈ 250 µg/mL) | 4960 µM (≈ 2000 µg/mL) | 2480 µM (≈ 1000 µg/mL) | 2480 µM (≈ 1000 µg/mL) | < 2 mm | 66.3 µM | 62.7 µM | 60.2 µM |  |  |  |  |  |  |  |  |  |  |
| Oc1cc(O)c2c(c1)O[C@H](c1ccc(O)c(O)c1)[C@@H](O)C2 |  |  |  |  |  |  |  | 2 mm |  |  |  |  |  |  |  |  |  |  |  |  |  |
| Cc1n[nH]c2c1C(c1ccc(N(C)C)cc1)C(C(=O)NN)=C(N)N2 (stereo not given) | 764 µM (≈ 250 µg/mL) | 764 µM (≈ 250 µg/mL) | 1530 µM (≈ 500 µg/mL) | 764 µM (≈ 250 µg/mL) | 1530 µM (≈ 500 µg/mL) | 1530 µM (≈ 500 µg/mL) | 1530 µM (≈ 500 µg/mL) | 5 mm | 66.4 µM | 42.6 µM | 51.3 µM | 68.2 µM |  |  |  |  |  |  |  |  |  |
| Cc1n[nH]c2c1C(c1ccc(N(C)C)cc1)C(C(=O)NNC(N)=S)=C(N)N2 (stereo not given) | 647 µM (≈ 250 µg/mL) | 647 µM (≈ 250 µg/mL) | 1290 µM (≈ 500 µg/mL) | 647 µM (≈ 250 µg/mL) | 1290 µM (≈ 500 µg/mL) | 1290 µM (≈ 500 µg/mL) | 1290 µM (≈ 500 µg/mL) | < 2 mm | 6.32 µM | 5.21 µM | 6.26 µM | 36.7 µM | 46 days | 155.5% | 2.25 mL | 30.94 ×10⁶ /ml | 13.4 g/dL | 5.59 ×10⁶ /mm3 | 8.52 ×10³ /mm3 | 49 µM | IC50 (WI-38): 53.5 µM |
| Cc1n[nH]c2c1C(c1ccc(N(C)C)cc1)C(C(=O)NNc1cc([N+](=O)[O-])ccc1[N+](=O)[O-])=C(N)N2 (stereo not given) | 507 µM (≈ 250 µg/mL) | 253 µM (≈ 125 µg/mL) | 1010 µM (≈ 500 µg/mL) | 507 µM (≈ 250 µg/mL) | 1010 µM (≈ 500 µg/mL) | 1010 µM (≈ 500 µg/mL) | 1010 µM (≈ 500 µg/mL) | 2.5 mm | 8.68 µM | 13 µM | 8.52 µM | 34 µM | 42 days | 133.3% | 2.8 mL | 34.73 ×10⁶ /ml | 13.1 g/dL | 5.24 ×10⁶ /mm3 | 10.32 ×10³ /mm3 | 51.2 µM | IC50 (WI-38): 55.4 µM |
| COc1cccc2c1C(=O)c1c(O)c3c(c(O)c1C2=O)C[C@@](O)(C(=O)CO)C[C@@H]3O[C@H]1C[C@H](N)[C@H](O)[C@H](C)O1 [DOXORUBICIN] |  |  |  |  |  |  |  |  |  |  |  | 31.3 µM | 62 days | 244.4% | 1 mL | 16.36 ×10⁶ /ml | 12.75 g/dL | 5.32 ×10⁶ /mm3 | 8.96 ×10³ /mm3 | 8.14 µM |  |
